Measured values published in patent US6288104A, “Pharmaceutical compositions containing mesembrine and related compounds” (African Natural Health CC, priority 1996, dated 2001).
Where “and” joins values, the source holds several entries; their conditions need not be identical. Equal entries are not always repeated. Entries after “also recorded” stand apart in the source; their conditions may differ.

Columns and labels:
Serotonin-uptake = Serotonin-uptake (Homo sapiens, UniProt P31645); experiment: Novascreen serotonin-uptake assay, with reference to imipramine HCl; format: biochemical; settings: for serotonin-uptake inhibition (in words): FIGS. 1 to 4, comparison with imipramine HCl
Description: FIG. 2 is a graph for a serotonin-uptake assay of a whole plant extract of a plant from the family Mesembryanthemaceae, identified by the code number 18639, as well as some comparisons with the known serotonin-uptake inhibitor imipramine HCl;
FIG. 3 is a graph for a serotonin-uptake assay for mesembranol, identified by the code number 18623, as well as some comparisons with the known serotonin-uptake inhibitor imipramine HCl; and
FIG. 4 is a graph for a serotonin-uptake assay for mesembranone, identified by the code number 18622, as well as some comparisons with the known serotonin-uptake inhibitor imipramine HCl.
In addition, the whole plant extract of Sceletium N.E.Br., mesembranol and mesembranone were screened for biological activity by the National Institute of Mental Health in the United States of America through the contract with Novascreen.

GABA B = experiment: Novascreen GABA B receptor screen; format: binding; settings: Average: N = 2; Concentration 5,0E1
healthy adult volunteers = experiment: Study 2: single sublingual dose of pure (-)-mesembrine in healthy adult volunteers; format: in vivo; settings: single 200 microgram sublingual dose in 1 ml of 60% ethanol
Description: Various […] studies of the effects of the compounds of the invention were carried out in adult volunteers as follows:
Study 2. N=2 Healthy Adult Volunteers, All Health Professionals Sep. 21, 1996.

Sequence of Serotonin-uptake (P31645 whole entry): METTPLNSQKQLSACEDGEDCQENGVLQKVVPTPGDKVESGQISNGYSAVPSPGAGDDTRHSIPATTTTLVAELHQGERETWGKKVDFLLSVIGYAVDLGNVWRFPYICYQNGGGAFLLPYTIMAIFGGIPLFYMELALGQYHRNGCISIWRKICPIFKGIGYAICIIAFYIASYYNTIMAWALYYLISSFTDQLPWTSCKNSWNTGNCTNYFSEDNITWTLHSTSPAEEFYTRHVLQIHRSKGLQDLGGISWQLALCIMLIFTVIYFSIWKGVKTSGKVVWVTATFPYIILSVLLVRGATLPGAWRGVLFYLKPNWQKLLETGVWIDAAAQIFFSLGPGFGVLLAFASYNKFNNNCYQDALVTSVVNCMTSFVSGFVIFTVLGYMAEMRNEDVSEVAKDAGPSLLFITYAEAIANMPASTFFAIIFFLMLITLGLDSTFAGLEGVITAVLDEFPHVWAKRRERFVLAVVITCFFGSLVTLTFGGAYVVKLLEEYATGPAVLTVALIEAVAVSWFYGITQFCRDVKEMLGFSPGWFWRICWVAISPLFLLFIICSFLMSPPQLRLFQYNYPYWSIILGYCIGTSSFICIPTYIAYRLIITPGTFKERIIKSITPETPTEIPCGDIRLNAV

Compound | Percent Inhibition, Serotonin-uptake (Serotonin-uptake; Average: N = 2, Concentration 5,0E1) | serotonin-uptake inhibition (in words) (Serotonin-uptake) | Percent Inhibition, GABA B (GABA B) | Anxiolytic effect (healthy adult volunteers; N=2) | Duration of anxiolytic action (healthy adult volunteers; N=2) | Sustained elevation of mood (healthy adult volunteers; N=2) | Duration of sustained elevation of mood (healthy adult volunteers; N=2, individual volunteers) | Onset of action (healthy adult volunteers; N=2, individual volunteers)
COc1ccc(C23CCC(=O)CC2N(C)CC3)cc1OC (single isomer, unassigned; (-)) [(-)-mesembrine, 3a-(3,4-dimethoxyphenyl)-octahydro-1-methyl-6H-indol-6-one] | 96,5% | highly potent serotonin-uptake inhibitor | -0,6% | noted by both | five hours to eight hours | noted by both | approximately eight; also recorded: eleven | 7 min and 12 min
COc1ccc(C23CCC(O)CC2N(C)CC3)cc1OC (stereo not shown) [mesembranol] |  | highly potent serotonin-uptake inhibitors |  |  |  |  |  | 
COc1ccc(C23C=CC(=O)CC2N(C)CC3)cc1OC (stereo not shown) [mesembranone] |  | highly potent serotonin-uptake inhibitors |  |  |  |  |  | 
